Measured values published in patent US5334612A, “Pharmaceutical compositions containing as active substance sulphur-containing carboxylic acids and their use in combating retroviruses” (priority 1988, dated 1994).

Legend:
HIV-1 = experiment: Reduction of infectious viruses (HIV-1) in cell culture supernatant in vitro; assay type: cell-based
Experimental: For example the compounds of Formula I have a good, growth-inhibiting effect on HIV (type 1 and 2) which may be shown in vitro for example in the following virological-cell biological test processes:
3. Determination of reverse transcriptase in culture supernatant
4. Determination of the p24 antigen in culture supernatant
Thus, for example, a single dose of 0.035 mg/ml of compound I (for example alpha-lipoic acid, racemate) reduces the number of infectious viruses (for example HIV-1) in cell culture supernatant from 100% in the positive control to 0%.
For the in vitro trials the active substance of Formula I is used, for example in benzyl alcohol as solvent.
For in vitro investigations into the replication behavior of retroviruses, in particular HIV, it is for example possible to use the following substrates:
1. Virus-containing RPMI 1640 medium, for example 1X liquid 041-01875 (synthetic culture medium from Gibeo according to Moore, Gerner and Franklin, H.A. (1967), J.A.M.A. 199; 519) with a concentration of 2×10^3 -1×10^4 infectious units (PFU)/ml.
2. The cell lines Jurkat Clone E6-1, Sup T1 and HeLa CT4.

[1] = test system: HIV-1 in permanently infected Molt4 cells; experiment: Plaque test, tumor cell line (Molt4) permanently infected with HIV-1; assay type: cell-based
Text: (§1) The inhibitory effect is shown in a cell line permanently infected with HIV-1.
(§2) 1. Negative (non infected) cells (for example Molt 4) are removed from the culture bottle with RPMI 1640 culture medium and centrifuged down in an appropriate vessel. As a basic principle, the negative cells may be the cells from any CD4 receptor-positive T-cell line. It is, for example, possible to use the following commercially available cell lines: H9, Hut78, SupT1, Jurkat, Molt4. Molt4 is for example a monoclonal T-cell line of the peripheral blood of a cancer patient. T-cell lines are derived from human tumors, for example from specific forms of leukemia. Cell lines of this type grow permanently as long as they are kept in the appropriate culture medium and CO2 concentration in an incubator at 37° C. These lines may be purchased from the American Type Culture Collection (ATCC).
2. These Molt4 cells are then resuspended (taken up) in highly virus-containing culture medium (RPMI 1640+10% fetal calf serum) placed in a culture flask and incubated (cultivated) for ca. 12 hours in an incubator at 37° C. and 5% CO2. This infects part (depending on the concentration of the infectious virus) of the cells.
3. After 12 hours the cells are again separated by centrifugation and resuspended in fresh medium (RPMI 1640, containing no virus) and cultivated for ca. 4 weeks in an incubator.
4. Once every week the medium is completely replaced (separated by centrifugation, resuspended, etc.) and negative, non-infected cells are added.
5. After ca. 4 weeks 80-100% of the cells are infected=permanently infected cell line. The infection is for example determined using immunofluorescence. The cells infected in this manner produce HIV in a titer range of about 10^5 -10^6 infectious units (PFU). The tumor cell line permanently infected in this manner (Molt4) is treated for three weeks with 70 μg of α-lipoic acid/ml. Every three days culture medium and α-lipoic acid are replaced and the activity of the virus determined in the reverse transcriptase and plaque test. […]

[2] = test system: HIV-1 in permanently infected Molt4 cells; experiment: Reverse transcriptase test, tumor cell line (Molt4) permanently infected with HIV-1; assay type: cell-based; conditions: 70 μg/ml, FIG. 1
Text: as §1, §2
2. These Molt4 cells are then resuspended (taken up) in highly virus-containing culture medium (RPMI 1640+10% fetal calf serum) placed in a culture flask and incubated (cultivated) for ca. 12 hours in an incubator at 37° C. and 5% CO2. […]
5. […] The infection is for example determined using immunofluorescence. […] Every three days culture medium and α-lipoic acid are replaced and the activity of the virus determined in the reverse transcriptase and plaque test. […]

[3] = test system: HIV in freshly infected Jurkat cells; experiment: Plaque test, freshly infected Jurkat cells; assay type: cell-based; conditions: 7 days
Experimental: To compare both compounds, freshly split Jurkat cells were infected with HIV (8×10^3 PFU) and afterwards recombinant alpha interferon (rIF) (70 units/ml) or 35 ng/ml of α-lipoic acid was added thereto using a pipette. The experiment was concluded after 7 days in order to assess in particular the growth of the first virus generation.
Cells are taken up in fresh medium and may now be defined as being freshly infected cells. As distinct from permanently infected cells, far fewer cells are virus carriers, and therefore synchronously treated, i.e. the first and second virus generation is given off into the culture supernatant relatively at the same time on the 3rd and 7th day. These virus generations may be quantified on these days (plaque and reverse transcriptase test) and may be compared. The term "single hit kinetics" is also used in this context.
3. α-lipoic acid is added using a pipette.
Cells are cultured for 7 days in an incubator.
On day 4 and day 7 samples are withdrawn from the culture for plaque and RT assay.

[4] = test system: peripheral blood lymphocytes; experiment: Proliferation rate or lethality of peripheral blood lymphocytes; assay type: cell-based; conditions: 70 μg/ml
plasma p24 antigen (HIV) = experiment: Plasma p24 antigen level (ELISA) in HIV-infected patients; assay type: in vivo, human patients (HIV)
Experimental: (§3) Determination of the plasma p24 antigen level using a commercial ELISA; p24 is the designation for a structural protein of the HIV virus; ELISA (Enzyme Linked Immuno Sorbent Assay) is a test technique frequently used in virology in order to determine proteins, antigens, etc.
(§4) The following results were recorded in 4 patients in Walter Reed stage 6. Application of α-lipoic acid was, by means of infusion of an α-lipoic acid solution having the following composition: 10 ml of aqueous solution containing 250 mg of α-lipoic acid in the form of the ethylene diamine salt (=323 mg salt) as well as 1 g of 1,2-propylene glycol and 100 mg of benzyl alcohol.
Walter Reed stages: division of HIV-infected patients according to the degree of their clinical symptoms. In stage 0 no HIV virus can be detected. Stage 6 relates to the final stage of AIDS.

[5] = test system: HIV from patient lymphocytes; experiment: Virus isolation with cocultivation (standard method) from patient lymphocytes; assay type: in vivo, human patients (HIV)
Experimental: (§5) Virus isolation with cocultivation: patient lymphocytes are cocultivated with donor lymphocytes. The virus produced by these cells (p24) is measured using an ELISA after 21 days (standard method).
as §4

[6] = test system: HIV p24 production from patient lymphocytes; experiment: Virus isolation without cocultivation, p24 production of patient lymphocytes; assay type: in vivo, human patients (HIV)
Experimental: (§6) Virus isolation without cocultivation: the production of virus (p24) from 1×10^6 patient lymphocytes is quantitatively measured using an ELISA after 11 days. No donor lymphocytes are added in this standardized method. Virus production may be quoted in pg^1 p24/ml/200,000 cells. (Newly developed method). Cell titration: virus isolation is carried out starting from a decreasing number of patient lymphocytes (e.g. 10^6, 10^5, 10^4).
as §4

[7] = test system: HIV from patient lymphocytes; experiment: Virus isolation with cell titration; assay type: in vivo, human patients (HIV)
Experimental: as §6, §4

infectious HIV in plasma = experiment: Plasma titer (number of infectious viruses in the plasma); assay type: in vivo, human patients (HIV)
Experimental: (§7) Determination of the plasma titer which states the number of infectious viruses in the plasma.
as §4

[8] = Acute toxicity in the mouse (LD 50, Miller and Tainter); conditions: in vivo, oral
Experimental: The acute toxicity of α-lipoic acid in the mouse (expressed in the LD 50 mg/kg; Method after Miller and Tainter: Proc. Soc. Exper. Biol. a. Med. 57 (1944) 261) is, for example, in oral application above 400 mg/kg body weight, that of dihydrolipoic acid above 200 mg/kg body weight mouse.

[9] = Plasma level at normal oral dosage; assay type: in vivo; conditions: side effect-free dosage
HIV = experiment: Virological markers overall in HIV-infected patients; assay type: in vivo
Experimental: as §3, §5, §6, §7, §4

[10] = cited from earlier work
[11] = animal experiments, rats and mice; cited from earlier work
[12] = patient 2, towards the end and after conclusion of therapy

O=C(O)CCCCC1CCSS1 (racemic) [α-lipoic acid]
minimal effective concentration (HIV-1; Human immunodeficiency virus 1, same test procedure, read-out: low dose at which a virus-inhibiting effect can be demonstrated): 1 µg/mL
activity at 35 µg/mL (HIV-1; Human immunodeficiency virus 1, single dose of 0.035 mg/ml, read-out: number of infectious viruses in cell culture supernatant (positive control 100%)): 0%
inhibition at 70 µg/mL ([1]; Human immunodeficiency virus 1, MOLT-4, 72 h, read-out: reduction of infectious virus units): ~100%
number of infectious virus units ([1]; after 3 days, 70 μg/ml, FIG. 1): about 0
development of tolerance ([1]; three weeks, 70 μg/ml): no sign or evidence of the development of tolerance after three weeks
time from which number of virus units produced falls [2]: ≥ 6 days
inhibition at 70 µg/mL ([2]; Human immunodeficiency virus 1, MOLT-4, 504 h, after three weeks, read-out: reduction of number of virus units produced): 90%
inhibition of viral replication ([3]; infected, not pre-treated Jurkat cells, α-lipoic acid 35 ng/ml (so in the source), rIF 70 units/ml, FIG. 2 and 3): comparable inhibition
inhibition in the plaque test ([3]; α-lipoic acid 35 ng/ml (so in the source) vs rIF 70 units/ml, FIG. 3): clearer
proliferation rate or lethality of peripheral blood lymphocytes [4]: not substantially affected
plasma p24 antigen level, fraction of initial value (plasma p24 antigen (HIV); cases 1 and 2, ca. 14 days, summary): 1/10
plasma p24 antigen level (plasma p24 antigen (HIV); patient 1, infusion, 14 days after commencement of therapy, before therapy 0.350 ng/ml): 0.05 ng/mL
plasma p24 antigen level (plasma p24 antigen (HIV); patient 1, infusion, day 29, before therapy 0.350 ng/ml): 0.025 ng/mL
plasma p24 antigen level (plasma p24 antigen (HIV); patient 1, infusion, until end of therapy (58 days), before therapy 0.350 ng/ml): 0.25 ng/mL
plasma p24 antigen level, initial fall (plasma p24 antigen (HIV); patient 2, infusion, prior to treatment 0.4 ng/ml): barely the 10-fold value
plasma p24 antigen level (plasma p24 antigen (HIV); patient 3): always negative
plasma p24 antigen level, change after end of therapy (plasma p24 antigen (HIV); patient 4, after end of therapy): again rose to the initial values
plasma p24 antigen level (plasma p24 antigen (HIV); patient 4, infusion, up to the 18th day of therapy, before/at beginning of therapy 0.070 ng/ml): 0.005 ng/mL
virus isolation from patient lymphocytes ([5]; cases 2 and 3, summary): totally negative
virus isolation (standard method) ([5]; patient 1, throughout the entire therapy period): positive
virus isolation [5, 12]: repeatedly negative
virus production in virus isolations from patient lymphocytes ([6]; cases 2, 3 and 4, summary): markedly lower virus production
production of p24 antigen, change after end of therapy ([6]; patient 3, after the end of therapy): rose again slowly
production of p24 antigen ([6]; patient 3, by day 28, before therapy about 10): 0 pg/ml 200,000 cells
production of p24 antigen, change ([6]; patient 3, day 5 of therapy, before therapy about 10 pg/ml 200,000 cells): doubled
p24 production, change after end of therapy ([6]; patient 4, after end of therapy, also treated with AZT): did not rise significantly
p24 production/ml/200,000 cells, fall ([6]; patient 4, up to the end of therapy, before therapy 8 pg/ml, also being treated with AZT at this time): 75%
cell titer, number of cells from which virus could be cultivated ([7]; patient 2, during treatment, before treatment 10^3 cells): 10^5 cells
cell titer, fall ([7]; patient 2, during treatment, before treatment 1000): fell by two orders of magnitude
results after conclusion of therapy ([7]; patient 4, after conclusion of therapy): deteriorated once again
virus detection ([7]; patient 4, end of therapy (in the current range), before therapy virus clearly detected in 2×10^6 cells): hardly any viruses could be detected
positive plasma titers (infectious HIV in plasma; cases 2 and 4, in the course of therapy, summary): 0
plasma titrations (infectious HIV in plasma; patient 3): always negative
plasma titer (infectious HIV in plasma; patient 4, during therapy, before therapy 10): 0
LD50 [8]: > 400 mg/kg
factor by which 70 μg/ml is above the plasma levels [9]: 10-20 times
virus markers (HIV; [12]): drastic fall in all virus markers
improvement in virological markers (HIV; patients with clearly measurable virological markers): marked improvement in these parameters
pharmacological properties ([10]; racemate): anti-inflammatory, antinociceptive (analgesic) and cytoprotective properties
effect in fungus poisoning / coenzyme and growth factor roles ([10]; α-lipoic acid racemate): acts as co-enzyme in many enzymatic reactions, constitutes a growth factor for certain bacteria and protozoas and is used in death-head fungus poisoning

O=C(O)CCCCC(S)CCS (stereo not drawn) [dihydrolipoic acid, 6,8-dimercapto-octanoic acid]
LD50 [8]: > 200 mg/kg
inactivation of snake venom [11]: inactivates snake venom
